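Briefly, cells in 96-well plates were exposed to five compound concentrations for 48 h, and endpoints were estimated by linear interpolation. TGI denotes the concentration required for complete inhibition of growth.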
Columns and labels:
Test in all cases: growth of human tumour cells (NCI), 48 h
HOP-62 NSCLC = system: HOP-62 NSCLC
SNB-75 CNS = system: SNB-75 CNS
HOP-92 NSCLC = system: HOP-92 NSCLC
SK-OV-3 ovarian = system: SK-OV-3 ovarian
MALME-3M melanoma = system: MALME-3M melanoma
KM12 colon = system: KM12 colon
HCC-2998 colon = system: HCC-2998 colon
SN12C renal = system: SN12C renal
MOLT-4 leukemia = system: MOLT-4 leukemia
UO-31 renal = system: UO-31 renal
ACHN renal = system: ACHN renal

SMILES	TGI (HOP-62 NSCLC)	TGI (SNB-75 CNS)	TGI (HOP-92 NSCLC)	TGI (SK-OV-3 ovarian)	TGI (MALME-3M melanoma)	TGI (KM12 colon)	TGI (HCC-2998 colon)	TGI (SN12C renal)	TGI (MOLT-4 leukemia)	TGI (UO-31 renal)	TGI (ACHN renal)
Cc1nccn1S(=O)(=O)c1ccc(Cl)cc1	> 100 µM	> 100 µM	64.3 µM	> 100 µM	> 100 µM	> 100 µM	88 µM	> 100 µM	> 100 µM	> 100 µM	> 100 µM
COc1ccc(/C=C(/c2ccc(OC)cc2)c2c(Cl)cc(Cl)c(/C(=C\c3ccc(OC)cc3)c3ccc(OC)cc3)c2N=Nc2ccccc2)cc1	> 100 µM	> 100 µM	> 100 µM	> 100 µM	> 100 µM	> 100 µM	> 100 µM	> 100 µM	> 100 µM	> 100 µM	> 100 µM
CCC(C)N1CN(c2ccccc2)C2(CCN(CCCC3(c4ccc(F)cc4)OCCO3)CC2)C1=O (stereo not given)	27.6 µM	19.8 µM	0.959 µM	56 µM	9.5 µM	> 50.6 µM	26.9 µM	18.9 µM	19.5 µM	10.7 µM	14.9 µM
Cc1ccc(S(=O)(=O)N/N=C\c2c3ccccc3[n+](C)c3ccccc23)cc1	> 100 µM	46 µM	73.2 µM	> 100 µM	95.3 µM	> 100 µM	> 100 µM	> 100 µM	53.3 µM	88.9 µM	> 100 µM
O=c1onc(Nc2ccccc2)n1-c1ccccc1	> 100 µM	> 100 µM	> 100 µM	> 100 µM	> 100 µM	> 100 µM	> 100 µM	> 100 µM	> 100 µM	> 100 µM	> 100 µM
O=NNc1c[nH]c(=O)[nH]c1=O	> 100 µM	> 100 µM	> 100 µM	> 100 µM	> 100 µM	> 100 µM	> 100 µM	> 100 µM	> 100 µM	> 100 µM	> 100 µM
C=C1CC(O)C2C(=C)C(=O)OC2C2C(C)C(=O)CC12 (stereo not given)	42.7 µM	30.3 µM	33.8 µM	> 100 µM	31.5 µM	56.9 µM	34.4 µM	29.9 µM	39.2 µM	28 µM	17.9 µM
CSc1c(C)n([O-])c2cc(Cl)c(Cl)cc2[n+]1=O	> 100 µM	> 69.4 µM	30.3 µM	> 100 µM	33 µM	> 60.7 µM	38 µM	33.3 µM	5.43 µM	30.4 µM	30.7 µM
CCN(CC)C(=O)c1cc([N+](=O)[O-])c(=O)n2c1[nH]c1ccccc12	> 100 µM	> 100 µM	> 100 µM	> 100 µM	> 100 µM	> 100 µM	> 100 µM	> 100 µM	> 100 µM	> 100 µM	> 100 µM
CC(C)(C)CC(C)(C)NCC(O)COc1ccc(C(C)(C)c2ccc(OCC(O)CNC(C)(C)CC(C)(C)C)cc2)cc1 (stereo not given)	3.19 µM	2.79 µM	3 µM	3.24 µM	2.96 µM	2.31 µM	1.21 µM	3.04 µM	1.26 µM	2.98 µM	3.17 µM
COc1ccc(/N=N/C(=NNC(=O)c2ccc(C)cc2)c2ccc(N(C)C)cc2)cc1	> 100 µM	> 100 µM	> 100 µM	> 100 µM	94.6 µM	> 100 µM	98.4 µM	> 100 µM	> 72.5 µM	> 100 µM	> 89.9 µM
CCN(CCC#N)C(=O)Nc1ccccc1	> 100 µM	> 100 µM	> 100 µM	> 100 µM	> 100 µM	> 100 µM	> 100 µM	> 100 µM	> 100 µM	> 100 µM	> 100 µM
Cn1c(-c2c(C3=CC(=O)N(c4ccccc4)C3=O)c3ccccc3n2C)cc2ccccc21	> 100 µM	> 100 µM	> 100 µM	> 100 µM	> 100 µM	> 100 µM	> 100 µM	> 100 µM	> 100 µM	> 100 µM	> 100 µM
NNS(=O)(=O)c1ccc(/C=C2\NC(=O)NC2=O)cc1	> 100 µM	> 100 µM	> 100 µM	> 100 µM	> 100 µM	> 100 µM	> 100 µM	> 100 µM	> 100 µM	> 100 µM	> 100 µM
CC1CN=C(c2ccc(CN3CCC(CCCC4CCN(Cc5ccc(C6=NCC(C)N6)cc5)CC4)CC3)cc2)N1 (stereo not given)	> 100 µM	87.6 µM	> 100 µM	> 100 µM	> 100 µM	40 µM	28.7 µM	> 100 µM	50.1 µM	> 100 µM	> 100 µM
O=C(O)C1CSC2(CCCN(Cc3ccccc3)C2)N1 (stereo not given)	> 100 µM	> 100 µM	> 100 µM	> 100 µM	> 100 µM	> 100 µM	> 100 µM	> 100 µM	> 59.9 µM	> 100 µM	> 100 µM
O=C(CN1CCN(c2ccccn2)CC1)N1CCCn2c1nc1ccccc1c2=O	> 100 µM	> 100 µM	> 100 µM	> 100 µM	> 100 µM	> 100 µM	> 100 µM	> 100 µM	> 100 µM	> 100 µM	> 100 µM
COC(=O)/C=C\C(C#N)(C#N)N=Cc1ccc(Br)cc1	33.4 µM	28.8 µM	6.34 µM	33.6 µM	12.4 µM	29.3 µM	32.1 µM	17.8 µM	> 22.4 µM	15.8 µM	8.92 µM
Cc1ccc2c(c1)Nc1ccccc1P2(=O)O	> 100 µM	97.7 µM	> 100 µM	> 100 µM	> 100 µM	> 100 µM	> 100 µM	> 100 µM	> 100 µM	> 100 µM	> 100 µM
Cc1cc(OCC(O)CO)ccc1Cl (stereo not given)	> 100 µM	> 100 µM	> 100 µM	> 100 µM	> 100 µM	> 100 µM	> 100 µM	> 100 µM	> 100 µM	> 100 µM	> 100 µM

— PubChem BioAssay (NCI)
